From BigSolDB 2.1

Cc1c(Cl)cccc1Nc1ccccc1C(=O)O
solubility (mole fraction)
Conditions	283.15 K	288.15 K	293.15 K	298.15 K	303.15 K	308.15 K	313.15 K	318.15 K	323.15 K	328.15 K
in 1,4-dioxane	–	0.0289	0.032	0.0356	0.0399	0.0444	0.0492	0.0548	0.0599	0.0654
in DMF	0.00652	0.00892	0.0117	0.0152	0.019	0.0241	0.0303	0.0374	0.0454	0.055
in DMSO	–	–	0.0144	0.0186	0.0229	0.0288	0.0351	0.042	0.0495	0.0571
in acetonitrile	0.000228	0.000339	0.000463	0.000618	0.000808	0.00107	0.00137	0.00177	0.00221	0.00282
in cyclohexane	2.97e-05	4.31e-05	5.94e-05	8.23e-05	0.000116	0.000159	0.000216	0.000292	0.000391	0.000515
in ethyl acetate	0.00603	0.00799	0.0102	0.0127	0.0162	0.0201	0.0252	0.0314	0.0383	0.0458
in ethyl formate	0.00169	0.00239	0.00311	0.00405	0.00506	0.0066	0.00833	0.01	0.0131	0.0159
in ethylene glycol	8.74e-05	0.000132	0.000177	0.000233	0.000311	0.000406	0.000546	0.000717	0.000931	0.00122
in n-heptanol	0.00557	0.00726	0.00924	0.0114	0.0142	0.0171	0.0214	0.0257	0.0306	0.0366
in n-hexanol	0.00435	0.00581	0.00758	0.0094	0.0118	0.0144	0.0176	0.021	0.0251	0.0295
in n-pentanol	0.00335	0.00432	0.00575	0.00741	0.00916	0.0112	0.0138	0.0169	0.0206	0.0243
in n-pentyl acetate	0.00558	0.00726	0.00931	0.0116	0.0146	0.0179	0.0218	0.0261	0.031	0.0371
